For data set [1], the system named is Salmonella typhimurium mutant TA97A, TA98, TA100, and TA1535 strains. The data set can be described thus: Ames test, overall result on all strains. Particulars: all concentrations, with and without S9 mix. It is filed as cell-based. Here is the method: To investigate whether changes in the structure of TMA abolish the mutagenic effect observed with this class of compounds, the most promising TMA analogs were evaluated by the Ames test. Compounds 4-PhDMA and pANDMA were tested for genotoxicity evaluation using the histidine-requiring Salmonella typhimurium mutant TA97A, TA98, TA100, and TA1535 strains that allow checking frameshift mutation and base pair substitution, with and without metabolic activation induced by S9 Mix.
The number of spontaneous revertants is relatively constant, but it dramatically increases—generally in a dose-dependent way—when a mutagen is added to the plate. […]
The mutagenicity assay was performed for the test compounds following the plate incorporation method with the histidine-requiring Salmonella typhimurium mutant TA97A, TA98, TA100, and TA1535 strains purchased by Molecular Toxicology Inc. (Boone, NC, USA; moltox.com). […] The plates were incubated at 37 °C for 72 h and then his+ revertants were checked and counted using a Colony Counter 560 Suntex (Antibioticos, Italy). […] Statistical analysis: relative standard deviations were calculated using the statistical software STATISTICA 6.0 (StatSoft, Italia srl, Vigonza, Italy).
For orientation: In the Ames test, an excess of revertant colonies over the control signals mutagenicity.

The test system of the next data set is HepG2 cells. Briefly: Cytotoxicity MTT assay on HepG2 cells. Particulars: HepG2, 24 h, highest concentration tested (50 μM). For orientation: Tetrazolium dyes change colour on reduction, which living cells bring about.
Data set [2] can be described thus: In vivo oral pharmacokinetics in mice. Particulars: c57BL/6 male mice; for AUC 0-inf / CL/F / Cmax / Tmax / t1/2: 20 mg/kg gavage, in water; for oral bioavailability: water as vehicle. The method, then:
The main pharmacokinetic parameters of 4-PhDMA, pANDMA, and pANDMA mesylate were evaluated in c57BL/6 male mice, using water as dispersing vehicle.
All experimental procedures involving animals were conducted in accordance with the 3R principle to minimize their pain and discomfort. […] For the PK analysis, C57Bl6 male mice (n = 3 per time point) were gavaged with selected compounds (20 mg/kg), suspended in water, or dissolved in SEDDS formulations, after an overnight fast. […] 8.0 software (GraphPad Software Inc., San Diego, CA, USA), when appropriate. If not otherwise stated, the PK data are expressed as mean ± SD. p < 0.05 was considered statistically significant.
The TMA analogs were extracted and analyzed from mouse plasma as already reported. Briefly, 100 µL of plasma were treated with 300 µL of cold acetonitrile spiked with 80 nM of internal standard (IS, 6,4′-dimethylangelicin), and then the samples were centrifuged for 10 min at 12,000× g (Hettich Mikro 120 Benchtop Centrifuge) and 25 °C. Ten microliters of the supernatant were injected into the UHPLC system.
The analytical column was a Kinetex 2.6 μm C18 Polar, 100 A, 100 × 2.1 mm (Phenomenex, Bologna, Italy), thermostated at 30 °C. The mobile phase components A and B were water and methanol, respectively, both containing 10 mM ammonium formate. The eluent flow rate was 0.25 mL/min. […] MS data were analyzed using the Mass Hunter Qualitative Analysis software (Agilent Technologies, Palo Alto, CA, USA).
Chromatographic peaks of the TMA analog were identified and integrated by considering the Extracted Ion Chromatogram (EIC) of the [M+H]^+ species selected with a window of 5 ppm and normalized by the IS. Quantification of TMA analogs was carried out by external calibration of normalized signals using a seven-point calibration curve obtained by spiking blank plasma with each TMA analog in the range of 20–3000 nM.

Protocol for HepG2 cells: The potential toxicity of TMA analogs on hepatic tissue was assessed by evaluating the viability of HepG2 cells (ATCC, HB-8065) using the MTT assay, as previously reported [22]. Cells were maintained in DMEM complete medium (10% FBS, 1% l-glutamine and 1% PEN-STREP) and seeded in a 96-well plate (5 × 10^4 cells/mL). They were treated for 24 h with TMA analogs (concentration range from 3.125 μM to 50 μM). At the end of the treatment, cells were washed and an MTT solution (0.5 mg/mL in complete medium) was added to each well and incubated for 4 h at 37 °C. The solution was discarded, and the produced blue formazan crystals were dissolved with acidified isopropanol (2% HCl). Absorbance was measured at 570 nm using a multiplate reader (Victor Nivo, Perkin Elmer). The percentage of viable cells was calculated considering untreated cells as control.
The data shown in this figure are the results of three independent experiments, each
performed in quadruplicate.

The Cmax is the peak of the concentration-time curve. For orientation: Tmax means the time from dosing to the highest level. For `Cc1cc2c(-c3ccccc3)cc(=O)oc2c2c(C)coc12` [4-PhDMA], the “genotoxic activity (Ames test)” value in data set [1] was “non-genotoxic”. Also, the cell viability entry with HepG2 cells is on record as “greater than 75%”. Moreover, in data set [2], the “AUC 0-inf” value worked out at 2.74736 ± 0.51361 µM·h, the CL/F turned out to be 0.0014 ± 0.0014 mL/h/g, the highest level (Cmax) was 222 ± 184 nM and the time of peak concentration (Tmax) was found to be 1.25 ± 1.06 h. In addition, in data set [2], the t1/2 is 21.13 ± 0.98 h and the oral bioavailability result is reported as “very low”.
Regarding `Cc1cc(=O)oc2c1cc(-c1ccc(N)cc1)c1occ(C)c12` [pANDMA], in data set [1], the “genotoxic activity (Ames test)” value is listed as “non-genotoxic”. Moreover, the cell viability entry in the data set with HepG2 cells is reported as “greater than 75%”. For the same compound, in data set [2], the “AUC 0-inf” value was determined as 2.4054 ± 0.2082 µM·h, the CL/F was determined as 0.0083 ± 0.0007 mL/h/g, the time of peak concentration (Tmax) was 0.5 ± 0 h and the t1/2 amounted to 1.91 ± 0.71 h. Also, the oral bioavailability entry in data set [2] is “very low”. This compound came in with a Cmax in data set [2] (20 mg/kg) of 1520 ± 261 nM.

(Values after publication PMC9570109, “Improved Trimethylangelicin Analogs for Cystic Fibrosis: Design, Synthesis and Preliminary Screening” (International Journal of Molecular Sciences, 2022).)
